{"source": "patent US12459951B2", "about": "“Compounds that interact with RAS superfamily proteins for treatment of cancers, inflammatory diseases, rasopathies, and fibrotic disease” (SHY Therapeutics, LLC, priority 2022, dated 2025)", "key": {"[1]": {"tested_on": "Smad2/Smad3 phosphorylation", "experiment": "Phospho-Smad2/3 Inhibition Assay (western blot), Panc-1", "type": "cell-based, human", "settings": "at 10 μM, Panc-1 pancreatic cancer cell line; starred symbols = activation", "protocol": "Protocol for Phospho-Smad2/3 Inhibition Assay\nThis assay is referred to as the “Phospho-Smad2/3 Inhibition Assay” throughout this application.\n(§1) Cell lines: Human tumor-derived pancreatic cancer cell line Panc-1 (expressing KRas G12D mutant) and mouse muscle myoblast C2C12 were purchased from American Type Culture Collection and grown in complete DMEM-High Glucose, supplemented with penicillin (100 U/mL), streptomycin (100 μg/mL), and 10% heat-inactivated FBS at 37° C. in a humidified incubator with 5% CO2.\nMethod: Cells were plated at 350000 cells/well density in a 12-well plate, allowed 3 hours to adhere to the plate, then starved in the appropriate medium in the presence of 0.5% FBS overnight. The small molecules to be tested were added to the cells in the final concentration of 10 μM in the presence of 0.3% DMSO for 3 hours incubation at 37° C. For IC50 value determination, serial dilutions of compounds were added to cells under the same conditions. Next, Panc-1 cells were stimulated with 10 ng/ml TGF-b1 for 1 hour, and C2C12 cells were stimulated with 10 ng/ml TGF-b1 for 20 minutes (recombinant human TGF-b1, R&D Systems). After stimulation cells were lysed with lysis buffer containing 1% Triton X-100, EDTA, and Halt™ Protease & Phosphatase Inhibitor Cocktail (Thermo Scientific). Protein concentration was assessed by BCA protein assay (Thermo Scientific). Phosphorylation level of Smad2/Smad3 was determined by western blot.\n(§2) Western blot protocol: Equal amounts of protein (15-50 μg) were separated by SDS-PAGE and transferred to nitrocellulose membranes (Invitrogen by Thermo Fisher Scientific). The membrane was stained with Ponceau S Stain (Boston BioProducts) to verify uniform protein loading. Membranes were blocked with 10% milk and phosphorylation levels of Smad2/Smad3 were assessed by incubating overnight at 4° C. with the following antibodies: Phospho-Smad2 (Ser465/467) and Phosph-Smad3 (Ser423/425), both from Cell Signaling Technology. Then the membranes were incubated with HRP-conjugated secondary antibody (Jackson Immunoresearch, West Grove, PA). Bands were incubated in Amersham ECL Prime Western Blotting Detection Reagent (GE Healthcare) and visualized using the ChemiDoc MP imaging system (Bio-Rad)."}, "[2]": {"tested_on": "Erk1/2 phosphorylation", "experiment": "Erk1/2 Phosphorylation Assay (western blot), Panc-1", "type": "cell-based, human", "settings": "at 10 μM, * = activation", "protocol": "Protocol for Western Erk1/2 Cell-Based Phosphorylation Assay\nThis assay is referred to as the “Erk1/2 Phosphorylation Assay” throughout this application.\nas §1, with “was” for “and mouse muscle myoblast C2C12 were”, “Glucose medium,” for “Glucose,”\nMethod 1: Cells were plated at 350000 cells/well density in a 12-well plate, allowed 3 hours to adhere to the plate, then starved in the appropriate medium in the presence of 0.5% FBS overnight. The small molecules to be tested were added to the cells in the final concentration of 10 μM in the presence of 0.3% DMSO for 6 hours incubation at 37° C. For IC50 value determination, serial dilutions of compounds were added to cells under the same conditions. Next, cells were stimulated with 1.5 ng/ml EGF for 15 minutes then cells were lysed with lysis buffer containing 1% Triton X-100, EDTA, and Halt™ Protease & Phosphatase Inhibitor Cocktail (Thermo Scientific). Protein concentration was assessed by BCA protein assay (Thermo Scientific). Phosphorylation level of Erk1/2 was determined by western blot.\nMethod 2: Cells were plated at 350000 cells/well density in a 12-well plate in 10% FBS. The next day small molecules to be tested were added to the cells in the final concentration of 10 μM in the presence of 0.3% DMSO for 6 hours incubation at 37° C. For IC50 value determination, serial dilutions of compounds were added to cells under the same conditions. Next, cells were lysed with lysis buffer containing 1% Triton X-100, EDTA, and Halt™ Protease & Phosphatase Inhibitor Cocktail (Thermo Scientific). Protein concentration was assessed by BCA protein assay (Thermo Scientific). Phosphorylation level of Erk1/2 was determined by western blot.\nas §2, with “Erk1/2” for “Smad2/Smad3”, “anti-phospho-p44/42 (Thr202/Tyr204) antibody (Cell Signaling) followed by” for “the following antibodies: Phospho-Smad2 (Ser465/467) and Phosph-Smad3 (Ser423/425), both from Cell Signaling Technology. Then the membranes were incubated with”"}}}
{"smiles": "Cc1c(-c2ccn(C)n2)cn2nc(-c3nccn3C)nc(Nc3ncccn3)c12.Cl", "note": "[Compound 115, 5-Methyl-2-(1-methyl-1H-imidazol-2-yl)-6-(1-methyl-1H-pyrazol-3-yl)-N-(pyrimidin-2-yl)pyrrolo[2,1-f][1,2,4]triazin-4-amine hydrochloride salt]", "values": [{"measurement": "% inh of Smad2/3 phosphorylation in Panc-1", "setting": "[1]", "value": "A (A = 1-25% inhibition)"}, {"measurement": "% inh of Erk1/2 phosphorylation in Panc-1", "setting": "[2]", "value": "C (50-84% inhibition)"}]}
{"smiles": "Cc1c(-c2ccn(C)n2)cn2nc(-c3nccn3C)nc(Nc3ccncn3)c12.Cl", "note": "[Compound 116, 5-Methyl-2-(1-methyl-1H-imidazol-2-yl)-6-(1-methyl-1H-pyrazol-3-yl)-N-(pyrimidin-4-yl)pyrrolo[2,1-f][1,2,4]triazin-4-amine hydrochloride salt]", "values": [{"measurement": "% inh of Smad2/3 phosphorylation in Panc-1", "setting": "[1]", "value": "D (D = 76-100% inhibition)"}, {"measurement": "% inh of Erk1/2 phosphorylation in Panc-1", "setting": "[2]", "value": "D* (85-100% activation)"}]}
{"smiles": "COc1cnc(Nc2nc(-c3nccn3C)nn3cc(-c4ccn(C)n4)c(C)c23)nc1.Cl", "note": "[Compound 117, N-(5-Methoxypyrimidin-2-yl)-5-methyl-2-(1-methyl-1H-imidazol-2-yl)-6-(1-methyl-1H-pyrazol-3-yl)pyrrolo[2,1-f][1,2,4]triazin-4-amine hydrochloride salt]", "values": [{"measurement": "% inh of Smad2/3 phosphorylation in Panc-1", "setting": "[1]", "value": "A (A = 1-25% inhibition)"}, {"measurement": "% inh of Erk1/2 phosphorylation in Panc-1", "setting": "[2]", "value": "B (26-49% inhibition)"}]}
{"smiles": "Cc1c(-c2ccn(C)n2)cn2nc(-c3nccn3C)nc(Nc3ccccn3)c12", "note": "[Compound 118, 5-Methyl-2-(1-methyl-1H-imidazol-2-yl)-6-(1-methyl-1H-pyrazol-3-yl)-N-(pyridin-2-yl)pyrrolo[2,1-f][1,2,4]triazin-4-amine]", "values": [{"measurement": "% inh of Smad2/3 phosphorylation in Panc-1", "setting": "[1]", "value": "A* (A* = 1-25% activation)"}, {"measurement": "% inh of Erk1/2 phosphorylation in Panc-1", "setting": "[2]", "value": "D* (85-100% activation)"}]}
{"smiles": "Cc1c(-c2ccn(C)n2)cn2nc(-c3nccn3C)nc(Nc3nnco3)c12.Cl", "note": "[Compound 119, N-(5-Methyl-2-(1-methyl-1H-imidazol-2-yl)-6-(1-methyl-1H-pyrazol-3-yl)pyrrolo[2,1-f][1,2,4]triazin-4-yl)-1,3,4-oxadiazol-2-amine hydrochloride salt]", "values": [{"measurement": "% inh of Smad2/3 phosphorylation in Panc-1", "setting": "[1]", "value": "B* (B* = 26-45% activation)"}, {"measurement": "% inh of Erk1/2 phosphorylation in Panc-1", "setting": "[2]", "value": "A* (1-25% activation)"}]}
{"smiles": "Cc1c(-c2ccn(C)n2)cn2nc(-c3nccn3C)nc(Nc3cnccn3)c12", "note": "[Compound 120, 5-Methyl-2-(1-methyl-1H-imidazol-2-yl)-6-(1-methyl-1H-pyrazol-3-yl)-N-(pyrazin-2-yl)pyrrolo[2,1-f][1,2,4]triazin-4-amine]", "values": [{"measurement": "% inh of Smad2/3 phosphorylation in Panc-1", "setting": "[1]", "value": "A* (A* = 1-25% activation)"}, {"measurement": "% inh of Erk1/2 phosphorylation in Panc-1", "setting": "[2]", "value": "C* (46-84% activation)"}]}
{"smiles": "Cc1c(-c2ccn(C(C)C)n2)cn2nc(-c3nccn3C)nc(Nc3nccc(OCCO)n3)c12", "note": "[Compound 121, 2-((2-((6-(1-Isopropyl-1H-pyrazol-3-yl)-5-methyl-2-(1-methyl-1H-imidazol-2-yl)pyrrolo[2,1-f][1,2,4]triazin-4-yl)amino)pyrimidin-4-yl)oxy)ethan-1-ol]", "values": [{"measurement": "% inh of Smad2/3 phosphorylation in Panc-1", "setting": "[1]", "value": "A (A = 1-25% inhibition)"}, {"measurement": "% inh of Erk1/2 phosphorylation in Panc-1", "setting": "[2]", "value": "D* (85-100% activation)"}]}
{"smiles": "COCCOc1cc(Nc2nc(-c3nccn3C)nn3cc(-c4ccn(C(C)C)n4)c(C)c23)ncn1", "note": "[Compound 122, 6-(1-Isopropyl-1H-pyrazol-3-yl)-N-(6-(2-methoxyethoxy)pyrimidin-4-yl)-5-methyl-2-(1-methyl-1H-imidazol-2-yl)pyrrolo[2,1-f][1,2,4]triazin-4-amine]", "values": [{"measurement": "% inh of Smad2/3 phosphorylation in Panc-1", "setting": "[1]", "value": "C (C = 46-75% inhibition)"}, {"measurement": "% inh of Erk1/2 phosphorylation in Panc-1", "setting": "[2]", "value": "A* (1-25% activation)"}]}
{"smiles": "Cc1c(-c2ccn(C(C)C)n2)cn2nc(-c3nccn3C)nc(Nc3cc(OCCN(C)C)ncn3)c12", "note": "[Compound 123, N-(6-(2-(Dimethylamino)ethoxy)pyrimidin-4-yl)-6-(1-isopropyl-1H-pyrazol-3-yl)-5-methyl-2-(1-methyl-1H-imidazol-2-yl)pyrrolo[2,1-f][1,2,4]triazin-4-amine]", "values": [{"measurement": "% inh of Smad2/3 phosphorylation in Panc-1", "setting": "[1]", "value": "B (B = 26-45% inhibition)"}, {"measurement": "% inh of Erk1/2 phosphorylation in Panc-1", "setting": "[2]", "value": "A* (1-25% activation)"}]}
{"smiles": "Cc1c(-c2ccn(C)n2)cn2nc(-c3nccn3C)nc(Nc3cc4n(n3)CCO4)c12", "note": "[Compound 124, N-(5-Methyl-2-(1-methyl-1H-imidazol-2-yl)-6-(1-methyl-1H-pyrazol-3-yl)pyrrolo[2,1-f][1,2,4]triazin-4-yl)-2,3-dihydropyrazolo[5,1-b]oxazol-6-amine]", "values": [{"measurement": "% inh of Smad2/3 phosphorylation in Panc-1", "setting": "[1]", "value": "A (A = 1-25% inhibition)"}, {"measurement": "% inh of Erk1/2 phosphorylation in Panc-1", "setting": "[2]", "value": "C* (46-84% activation)"}]}
{"smiles": "Cc1c(-c2ccn(C(C)C)n2)cn2nc(-c3nccn3C)nc(Nc3ncc[nH]3)c12", "note": "[Compound 125, N-(1H-Imidazol-2-yl)-6-(1-isopropyl-1H-pyrazol-3-yl)-5-methyl-2-(1-methyl-1H-imidazol-2-yl)pyrrolo[2,1-f][1,2,4]triazin-4-amine]", "values": [{"measurement": "% inh of Smad2/3 phosphorylation in Panc-1", "setting": "[1]", "value": "B (B = 26-45% inhibition)"}, {"measurement": "% inh of Erk1/2 phosphorylation in Panc-1", "setting": "[2]", "value": "A (1-25% inhibition)"}]}
{"smiles": "Cc1c(-c2ccn(C)n2)cn2nc(-c3nccn3C)nc(Nc3cc(OC4CC4)ccn3)c12", "note": "[Compound 126, N-(4-Cyclopropoxypyridin-2-yl)-5-methyl-2-(1-methyl-1H-imidazol-2-yl)-6-(1-methyl-1H-pyrazol-3-yl)pyrrolo[2,1-f][1,2,4]triazin-4-amine]", "values": [{"measurement": "% inh of Smad2/3 phosphorylation in Panc-1", "setting": "[1]", "value": "A* (A* = 1-25% activation)"}, {"measurement": "% inh of Erk1/2 phosphorylation in Panc-1", "setting": "[2]", "value": "D* (85-100% activation)"}]}
{"smiles": "Cc1c(-c2ccn(C)n2)cn2nc(-c3nccn3C)nc(Nc3cc(OC(F)(F)F)ccn3)c12", "note": "[Compound 127, 5-Methyl-2-(1-methyl-1H-imidazol-2-yl)-6-(1-methyl-1H-pyrazol-3-yl)-N-(4-(trifluoromethoxy)pyridin-2-yl)pyrrolo[2,1-f][1,2,4]triazin-4-amine]", "values": [{"measurement": "% inh of Smad2/3 phosphorylation in Panc-1", "setting": "[1]", "value": "A (A = 1-25% inhibition)"}, {"measurement": "% inh of Erk1/2 phosphorylation in Panc-1", "setting": "[2]", "value": "D* (85-100% activation)"}]}
{"smiles": "Cc1c(-c2ccn(C)n2)cn2nc(-c3nccn3C)nc(Nc3cc(OC(F)F)ccn3)c12", "note": "[Compound 128, N-(4-(Difluoromethoxy)pyridin-2-yl)-5-methyl-2-(1-methyl-1H-imidazol-2-yl)-6-(1-methyl-1H-pyrazol-3-yl)pyrrolo[2,1-f][1,2,4]triazin-4-amine]", "values": [{"measurement": "% inh of Smad2/3 phosphorylation in Panc-1", "setting": "[1]", "value": "A (A = 1-25% inhibition)"}, {"measurement": "% inh of Erk1/2 phosphorylation in Panc-1", "setting": "[2]", "value": "D* (85-100% activation)"}]}
{"smiles": "Cc1c(-c2ccn(C)n2)cn2nc(-c3nccn3C)nc(Nc3cc(OCC(F)(F)F)ccn3)c12", "note": "[Compound 129, 5-Methyl-2-(1-methyl-1H-imidazol-2-yl)-6-(1-methyl-1H-pyrazol-3-yl)-N-(4-(2,2,2-trifluoroethoxy)pyridin-2-yl)pyrrolo[2,1-f][1,2,4]triazin-4-amine]", "values": [{"measurement": "% inh of Smad2/3 phosphorylation in Panc-1", "setting": "[1]", "value": "D* (D* = 76-100% activation)"}, {"measurement": "% inh of Erk1/2 phosphorylation in Panc-1", "setting": "[2]", "value": "D* (85-100% activation)"}]}
